Test results: US20060069132A1, “Azolecarboxamide herbicides” (priority 2004, published 2006)

Tests used:
[1] = tested on: smallflower umbrella sedge; assay: Test C flooded paddy test; type: in vivo, Cyperus difformis
[2] = tested on: barnyardgrass; assay: Test B pre-/postemergence herbicide test; type: in vivo, Echinochloa crus-galli; conditions: for Barnyardgrass plant response rating: postemergence
In short: (§1)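 Evaluation is visual, comparing treated with control plants on a scale where 0 means no effect and 100 means full control. Treatments were preemergence, or postemergence on seedlings 2–18 cm tall, and held 13–15 days in the greenhouse.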

[3] = tested on: wheat; assay: Test B postemergence herbicide test; type: in vivo, Triticum aestivum; set-up: key to Wheat plant response rating: 0 = no effect, 100 = complete control
In short: (§2)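 Scale 0–100: zero equals no visible effect, 100 complete control, judged by eye relative to controls. Timing: 13 to 15 days in greenhouse post-treatment. Growth stage at spraying: two leaves (paddy) or one to four leaves, 2–18 cm (postemergence).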

[4] = tested on: small flower umbrella sedge; assay: Test B flooded paddy test; type: in vivo, Cyperus difformis; conditions: 1000 g ai/ha, scale 0 to 100 (0 no effect, 100 complete control)
In short: (§3)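 Each value is a visual 0–100 response rating taken against controls 13 to 15 days after treatment in the greenhouse. Plants received formulated chemical postemergence at the 1- to 4-leaf stage or, in flooded paddy, at the 2-leaf stage.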

[5] = tested on: corn; assay: Test B pre-/postemergence herbicide test; type: in vivo, Zea mays; conditions: for Corn plant response rating: postemergence
In short: (§4)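 Pre: seeds sown, then sprayed. Post: 1–4-leaf plants (2–18 cm) sprayed at the same time. Paddy: flooded, treated at 2-leaf stage. Formulation: non-phytotoxic solvent with surfactant. Greenhouse 13–15 days; visual 0–100 score relative to controls.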

[6] = tested on: barnyardgrass; assay: Test C flooded paddy test; type: in vivo, Echinochloa crus-galli
In short: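 Scoring by eye, 12–14 days post-treatment, greenhouse-held plants vs. controls; 0 no effect, 100 complete control. Sprayed at 1–4 leaves (2–18 cm); paddy barnyardgrass at 2 leaves, flooded.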

[7] = tested on: Surinam grass; assay: Test B pre-/postemergence herbicide test; type: in vivo, Urochloa decumbens; conditions: for Surinam Grass plant response rating: scale 0 (no effect) to 100 (complete control)
In short: as §4

[8] = tested on: morningglory; assay: Test B pre-/postemergence herbicide test; type: in vivo, Ipomoea coccinea; conditions: for Morningglory plant response rating: scale 0 (no effect) to 100 (complete control)
In short: as §1

[9] = tested on: cocklebur; assay: Test B pre-/postemergence herbicide test; type: in vivo, Xanthium strumarium; conditions: for Cocklebur plant response rating: postemergence
In short: as §1

[10] = tested on: velvetleaf; assay: Test B pre-/postemergence herbicide test; type: in vivo, Abutilon theophrasti; conditions: for Velvetleaf plant response rating: scale 0 (no effect) to 100 (complete control)
In short: as §4

[11] = tested on: rice; assay: Test C flooded paddy test; type: in vivo, Oryza sativa
In short: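 Plants were grown to the 1- to 4-leaf stage (2–18 cm) and then treated postemergence, or grown to the 2-leaf stage for the flooded paddy test. They were held in a greenhouse for 12 to 14 days and then scored by eye against controls, where 0 is no effect and 100 is complete control.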

[12] = tested on: pigweed; assay: Test B pre-/postemergence herbicide test; type: in vivo, Amaranthus retroflexus; conditions: for Pigweed plant response rating: scale 0 (no effect) to 100 (complete control)
In short: as §4

[13] = tested on: giant foxtail; assay: Test B pre-/postemergence herbicide test; type: in vivo, Setaria faberi; conditions: for Foxtail, Giant plant response rating: postemergence
In short: as §4

[14] = tested on: barnyardgrass; assay: Test B flooded paddy test; type: in vivo, Echinochloa crus-galli; conditions: 1000 g ai/ha, scale 0 to 100 (0 no effect, 100 complete control)
In short: as §3

[15] = tested on: ducksalad; assay: Test C flooded paddy test; type: in vivo, Heteranthera limosa
[16] = tested on: large crabgrass; assay: Test B pre-/postemergence herbicide test; type: in vivo, Digitaria sanguinalis; conditions: postemergence
In short: as §4

[17] = tested on: blackgrass; assay: Test B postemergence herbicide test; type: in vivo, Alopecurus myosuroides; conditions: postemergence
In short: as §3

[18] = tested on: lambsquarters; assay: Test B pre-/postemergence herbicide test; type: in vivo, Chenopodium album; conditions: for Lambsquarters plant response rating: scale 0 (no effect) to 100 (complete control)
In short: as §4

[19] = tested on: ducksalad; assay: Test B flooded paddy test; type: in vivo, Heteranthera limosa; conditions: 1000 g ai/ha, scale 0 to 100 (0 no effect, 100 complete control)
In short: as §3

[20] = tested on: wild oat; assay: Test B postemergence herbicide test; type: in vivo, Avena fatua; conditions: scale 0 (no effect) to 100 (complete control)
In short: as §2

[21] = tested on: rice; assay: Test B flooded paddy test; type: in vivo, Oryza sativa; conditions: 1000 g ai/ha, scale 0 to 100 (0 no effect, 100 complete control)
In short: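 Plants grow to 1- to 4-leaf stage (2–18 cm) for postemergence spraying, or to 2-leaf stage for the paddy test. Formulated compound is applied. Greenhouse holding lasts 13–15 days. Response is scored visually relative to controls, 0 no effect to 100 complete control; a dash means no result.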

[22] = 125 g ai/ha, scale 0 to 100 (0 no effect, 100 complete control)
[23] = 250 g ai/ha, scale of 0 to 100, 0 is no effect, 100 is complete control
[24] = 500 g ai/ha, visual rating after 12 to 14 days, scale 0 to 100 (0 no effect, 100 complete control)
[25] = 125 g ai/ha, 0 is no effect, 100 is complete control, preemergence
[26] = 125 g ai/ha, visual rating, scale 0 (no effect) to 100 (complete control)
[27] = 500 g ai/ha, scale 0 to 100, 0 is no effect, 100 is complete control
[28] = 125 g ai/ha, visual rating, postemergence

## Cc1nn(C(C)(C)C)nc1C(=O)Nc1cc(C(=O)N(C)C)ccc1F [Compound 378]
[1]; 62 g ai/ha, scale 0 to 100
  Sedge, Umbrella plant response rating: 0
[1]; [22]
  Sedge, Umbrella plant response rating: 15
[1]; [23]
  Sedge, Umbrella plant response rating: 55
[1]; [24]
  Plant response rating, Sedge, Umbrella: 80
[2]; [25]
  Plant response rating (0 to 100 scale), Barnyardgrass: 30
[2]; [26]
  Barnyardgrass plant response rating: 0
[2]; [27]
  Barnyardgrass plant response rating: 0
[3]; 125 g ai/ha, visual rating, scale 0 (no effect) to 100 (complete control), postemergence
  Wheat plant response rating: 0
[3]; 500 g ai/ha, scale 0 to 100, 0 no effect, 100 complete control, preemergence
  Wheat plant response rating: 100
[3]; Postemergence, 500 g ai/ha, scale 0 (no effect) to 100 (complete control)
  Wheat plant response rating: 0
[4]
  Sedge, Umbrella plant response rating: 80
[5]; [25]
  Plant response rating (0 to 100 scale), Corn: 30
[5]; [26]
  Corn plant response rating: 0
[5]; [27]
  Corn plant response rating: 10
[6]; 62 g ai/ha, scale 0 to 100 (0 no effect, 100 complete control)
  Barnyardgrass plant response rating: 0
[6]; [22]
  Barnyardgrass plant response rating: 0
[6]; [23]
  Barnyardgrass plant response rating: 0
[6]; [24]
  Plant response rating, Barnyardgrass: 50
[7]; [25]
  Plant response rating (0 to 100 scale), Surinam Grass: 0
[7]; [28]
  Surinam Grass plant response rating: 10
[7]; Postemergence, 500 g ai/ha
  Surinam Grass plant response rating: 20
[8]; [25]
  Plant response rating (0 to 100 scale), Morningglory: 0
[8]; [28]
  Morningglory plant response rating: 20
[8]; Postemergence, 500 g ai/ha
  Morningglory plant response rating: 30
[9]; [25]
  Plant response rating (0 to 100 scale), Cocklebur: 0
[9]; [26]
  Cocklebur plant response rating: 0
[9]; [27]
  Cocklebur plant response rating: 0
[10]; [25]
  Plant response rating (0 to 100 scale), Velvetleaf: 50
[10]; [28]
  Velvetleaf plant response rating: 10
[10]; Postemergence, 500 g ai/ha
  Velvetleaf plant response rating: 40
[11]; 62 g ai/ha, scale 0 to 100
  Rice plant response rating: 0
[11]; [22]
  Rice plant response rating: 10
[11]; [23]
  Rice plant response rating: 30
[11]; [24]
  Plant response rating, Rice: 60
[12]; [25]
  Plant response rating (0 to 100 scale), Pigweed: 90
[12]; [28]
  Pigweed plant response rating: 40
[12]; Postemergence, 500 g ai/ha
  Pigweed plant response rating: 70
[13]; [25]
  Plant response rating (0 to 100 scale), Foxtail, Giant: 30
[13]; [26]
  Foxtail, Giant plant response rating: 0
[13]; [27]
  Foxtail, Giant plant response rating: 30
[14]
  Barnyardgrass plant response rating: 80
[15]; 62 g ai/ha, scale 0 to 100
  Ducksalad plant response rating: 0
[15]; [22]
  Ducksalad plant response rating: 0
[15]; [23]
  Ducksalad plant response rating: 20
[15]; [24]
  Plant response rating, Ducksalad: 75
[16]; [26]
  Crabgrass, Large plant response rating: 0
[16]; [27]
  Crabgrass, Large plant response rating: 10
[17]; [26]
  Blackgrass plant response rating: 0
[17]; [27]
  Blackgrass plant response rating: 0
[18]; [25]
  Plant response rating (0 to 100 scale), Lambsquarters: 90
[18]; [28]
  Lambsquarters plant response rating: 40
[18]; Postemergence, 500 g ai/ha
  Lambsquarters plant response rating: 70
[19]
  Ducksalad plant response rating: 90
[20]; [28]
  Oat, Wild plant response rating: 0
[20]; Postemergence, 500 g ai/ha
  Oat, Wild plant response rating: 20
[21]
  Rice plant response rating: 70
